Laboratory results: a melting point compilation (Tetko et al.; mined from patent text by program, amines drawn as free bases though some values may be those of a salt)

Structure (SMILES) | melting point
N#Cc1ccc2cc(CCCc3cc4ccc(C#N)cc4o3)oc2c1 | 199 to 201 °C
OC(CCCN1CC=C(c2ncco2)CC1)c1ccc(F)cc1 (centres undefined) | 100 to 103 °C
O=C1CC(c2cccc(-n3ccnc3)c2)=Nc2ccc(C#Cc3ccccc3)cc2N1 | 193 to 196 °C
Cc1oc(-c2ccccc2)nc1COc1cccc(CCCC2SC(=O)NC2=O)c1 (centres undefined) | 123 to 124 °C
CCCCCCCCNC(=O)NCc1ccc(O)c(OC)c1 | 90 to 92 °C
CCOC(=O)c1ccc(CC#N)cc1Cl | 60 °C
CNC(=O)ON=C1SC(C)C(=O)N1N(C)C (centres undefined) | 110 to 113 °C
C[Si](C)(C)C#Cc1cc(Cl)cnc1N | 108 °C
O=C(O)C(=NOCc1ccc(F)cc1)c1csc(NC(=O)C(F)(F)F)n1 | 180 to 182 °C
COc1nn(-c2cccc(N3CCCC3=O)c2)c(=O)n(Cc2ccc(Cl)cc2)c1=O | 91 to 93 °C
O=C1C2C3CCC(C3)C2C(=O)C1[N+](=O)[O-] (centres undefined) | 167 °C
CC(=O)Nc1ccc2oc3c(OC(F)F)ccc(C(=O)Nc4c(Cl)cncc4Cl)c3c2c1 | 234 °C
CC(C)c1ccc(C(=O)Cc2c(Cl)cccc2Cl)c(C(C)C)c1OS(N)(=O)=O | 203 to 205 °C
CNC(=C[N+](=O)[O-])NCCCOc1cccc(CCCN(C)C)c1 | 59.5 to 61 °C
Clc1ccc(-c2cc(C3CC3)n3nccc3n2)cc1 | 137 to 138 °C
CC(=CN(C)C)C(=O)c1cccc(Cl)c1 | 206 to 208 °C
C=CCOc1cccc2c1C(=O)N(C(C)(C#N)C(C)C)C2=O (centres undefined) | 54 to 58 °C
O=C1c2cc(Cl)ccc2N(N2CCCCC2)C2=NCCN12 | 192 to 193 °C
O=[N+]([O-])C(c1ccccc1)(c1ccccc1)[N+](=O)[O-] | 158 °C
CC(C)c1ccc(N(Cc2cn[nH]c2)C(=O)C2CCCc3c(O)cccc32)cc1 (centres undefined) | 247 °C
CCCCOC(=O)N(C)S(=O)(=O)c1cc([N+](=O)[O-])c(N(CCC)CCC)c([N+](=O)[O-])c1 | 99 to 101 °C
c1ccc(CSc2nc3ncccn3n2)cc1 | 104 to 106 °C
COC(=O)c1ccc(C=NNc2cc(C(C)(C)C)cc(C(C)(C)C)c2)cc1 | 215 to 220 °C

Structure (SMILES) | melting point
O=C1CCN(Cc2ccccc2)C(=O)C1=C1SC=CS1 | 122 to 124 °C
COc1ccc(-c2cn(O)c(=S)[nH]2)cc1 | 160 °C
Oc1ccc2ccc(OCCN3CCC(Cc4ccccc4)CC3)cc2c1 | 159 to 160 °C
O=C(Nc1cc(S(=O)(=O)N(CCO)CCO)sc1Cl)c1cnn2c(C(F)(F)F)cc(-c3ccc(C(F)(F)F)cc3)nc12 | 217 °C
Nc1ccc2c(OCc3nc4ccccc4s3)cccc2c1 | 141 to 143 °C
COC(=O)C1=C(C)Nc2ncnc(OC(C)C)c2C1c1cccc([N+](=O)[O-])c1 (centres undefined) | 218 to 219 °C
CN1OCN=C1c1nn(-c2c(Cl)cc(C(F)(F)F)cc2Cl)c(N)c1S(=O)C(F)(F)F (centres undefined) | 165 to 167 °C
CN(C)C(=O)c1ccc(N)cc1S(=O)(=O)NC(C)(C)C | 205 to 208 °C
COc1cccc(Cn2c(-c3cc(OC)c(OC)c(OC)c3)nc3ccccc32)c1 | 127 °C
CC(C)(C)c1cc(C(=O)N2CCN(c3ccc(N)cc3)CC2)cc(C(C)(C)C)c1O | 221 to 222 °C
C=CCc1ccc2oc(C(=O)c3ccc(OC)cc3)c(C)c2c1O | 48 to 50 °C
CCCc1cccnc1N(C)C1CCN(C(=O)c2ccc[nH]2)CC1 | 88 to 90 °C
COc1cc(OS(C)(=O)=O)ccc1C1=NC2=NCC(=O)NC2=N1 | > 260 °C
NC(=O)c1c(-c2cccc(F)c2)c(Cl)n2c1CN(C(=O)N[C@H]1CC[C@H](O)CC1)CC2 | 251 to 253 °C
COC(=O)N1CC1C(N)=O (centres undefined) | 117 to 120 °C
CCc1ccc(SC2CCOC2=O)c(C(=O)O)c1 (centres undefined) | 167 to 170 °C
C[C@@H]1S[C@@H](C(=O)Nc2ccc(CN3CCSCC3)cc2)Cc2cc3c(cc2C1=O)OCO3 | 204 to 206 °C
O=C(Cn1c2c(c3c4c(ccc31)OCC=C4)CCN(Cc1ccccc1)CC2)Nc1ccccc1 | 134 to 136 °C
Cc1ccc(-c2ccc(Sc3ccccc3)s2)cc1C | 77 to 78 °C
COc1ccccc1-c1ccc2cnc(Nc3ccc(OCCN4CCOCC4)cc3)nn12 | 133 to 135 °C
CN(C)C=Cc1ccc(OC(F)(F)F)cc1[N+](=O)[O-] | 59 °C
Cc1ccccc1-c1ccc(C(=O)N2Cc3ccc(C(=O)NCc4ccccc4)n3Cc3ccccc32)cc1C | 138 to 141 °C
Nc1nc(OC2CCC2)c2ncn(C3CC(F)C(CO)O3)c2n1 (centres undefined) | 139 to 140 °C

Structure (SMILES) | melting point
O=S(=O)(c1cccs1)N(c1cccc2cc(C3=NCC(CN4CCOCC4)S3)[nH]c12)C(F)F (centres undefined) | 185 to 186 °C
CCc1nc(/C=C/c2cn(-c3ccccc3)nc2OCc2ccc(OCc3nc(-c4ccc(C(=O)O)o4)oc3C)c(OC)c2)cs1 | 154 to 155 °C
Cc1cc(-c2cccc(C(F)(F)F)c2)c2nc(OCC(F)(F)F)cnc2c1 | 46 to 48 °C
COC(=O)COc1cc(C(C)C)c(SC#N)cc1C | 67 to 69 °C
CS(=O)(=O)c1ccc(C2=C(c3ccccc3)C(=O)OC23CCC3)cc1 | 159 to 160 °C
CC(=O)OCc1ccc2oc(=O)c(C(=O)Oc3cc(F)ccc3Br)cc2c1 | 148 to 150 °C
COc1cc(OC)cc(S(=O)(=O)n2c(CCCC(=O)O)cc3nc(Cl)ccc32)c1 | 136 to 138 °C
CN(C)c1ccc(N(c2ccc(N(C)C)cc2)C2(c3ccc(N(C)C)cc3)OC(=O)c3cc(N(C)C)ccc32)cc1 (centres undefined) | 86 to 92 °C
CC(N)C(=O)Nc1cc(OCC(F)(F)F)ccc1-c1ccccn1 (centres undefined) | 85 to 86 °C
CCCCc1ccc(C(=O)CCCn2ccnc2)cc1 | 125 to 128 °C
O=C(Cc1ccc(F)cc1)Nc1ccc(-n2nc(C(F)(F)F)cc2C2CC2)cc1 | 135 to 140 °C
O=C1Nc2cc(NC(=O)c3c[nH]cc(-c4cccc(Cl)c4)c3=O)ccc2/C1=C/c1ccc[nH]1 | > 300 °C
CCCc1ccn(-c2ccc(S(C)(=O)=O)cc2)c1-c1ccc(F)cc1 | 116 to 117 °C
O=C(O)CNC(=O)NC(CS)Cc1ccccc1 (single isomer, unassigned; (+)) | 110 °C
CCc1cccc2c(C=O)cc(Cl)c(O)c12 | 139 to 142 °C
Cc1ccc(S(=O)(=O)Cl)c2c1CCN(C(=O)C(F)(F)F)C2 | 152 to 153 °C
Cc1noc(C)c1-c1cn(Cc2ccccc2)c(=O)c2cnccc12 | 174 to 177 °C
CNC(=O)/C(=N/OC)c1ccccc1CCl | 72 to 74 °C
Cc1nc2c3c(c(C(=O)NN4CC4)cc2n1C)CCC(c1ccccc1)N3 (centres undefined) | 192 to 193 °C
COc1cccc2c1c1nc3ccccc3cc1n2C(C)=O | 125 to 126 °C
CCc1cn(C2CC(O)(c3ccc(C)cc3)C(C(O)c3ccc(C)cc3)O2)c(=O)[nH]c1=O (centres undefined) | 192 to 194 °C
O=C(OCc1ccccc1)c1cc2cc(Br)ccc2nn1 | 171 °C
FC(F)(F)c1cccc(CSc2nnc(-c3ccc4ncccc4c3)o2)c1 | 158 to 159 °C
